This passage reports IC50, inhibition and melting point results from patent US6589970B2, “6-(aryl-amido or aryl-amidomethyl)-naphthalen-2-yloxy-acidic derivatives as inhibitors of plasminogen activator inhibitor type-1 (PAI-1)” (Wyeth, priority 2001, dated 2003).

One data set deals with human PAI-1 (Homo sapiens, UniProt P05121). As to the kind of experiment: Assay for Determining IC50 of Inhibition of PAI-1 (Antibody Assay). It is filed as biochemical. The settings on record: active PAI-1 bound to tPA-coated plate. The method, then: This assay is based upon the non-SDS dissociable interaction between tPA and active PAI-1. Assay plates are initially coated with human tPA (10 μg/ml). The test compounds are dissolved in DMSO at 10 mM, then diluted with physiologic buffer (pH 7.5) to a final concentration of 1-50 μM. The test compounds are incubated with human PAI-1 (50 ng/ml) for 15 minutes at room temperature. The tPA-coated plate is washed with a solution of 0.05% Tween 20 and 0.1% BSA, then the plate is blocked with a solution of 3% BSA. An aliquot of the test compound/PAI-1 solution is then added to the tPA-coated plate, incubated at room temperature for 1 hour, and washed. Active PAI-1 bound to the plate is assessed by adding an aliquot of a 1:1000 dilution of the 33B8 monoclonal antibody against human PAI-1, and incubating the plate at room temperature for 1 hour (Molecular Innovations, Royal Oak, Mich. The plate is again washed, and a solution of goat anti-mouse IgG-alkaline phosphatase conjugate is added at a 1:50,000 dilution in goat serum. The plate is incubated 30 minutes at room temperature, washed, and a solution of alkaline phosphatase substrate is added. The plate is incubated 45 minutes at room temperature, and color development is determined at OD405nm. The quantitation of active PAI-1 bound to tPA at varying concentrations of the test compound is used to determine the IC50. Results are analyzed using a logarithmic best-fit equation. The assay sensitivity is 5 ng/ml of human PAI-1 as determined from a standard curve ranging from 0-100 ng/ml.
Chain of human PAI-1 (P05121 24-402): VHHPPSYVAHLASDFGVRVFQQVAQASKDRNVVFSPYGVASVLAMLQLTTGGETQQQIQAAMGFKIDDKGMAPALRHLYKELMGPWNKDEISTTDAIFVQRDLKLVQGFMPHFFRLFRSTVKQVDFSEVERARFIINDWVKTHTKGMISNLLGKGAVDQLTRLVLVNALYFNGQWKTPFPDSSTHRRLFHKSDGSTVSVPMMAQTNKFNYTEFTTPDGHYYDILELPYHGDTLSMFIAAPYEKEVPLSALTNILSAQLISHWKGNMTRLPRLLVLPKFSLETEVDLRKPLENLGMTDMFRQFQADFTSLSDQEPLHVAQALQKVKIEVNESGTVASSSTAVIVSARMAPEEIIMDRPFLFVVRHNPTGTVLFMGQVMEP

Data set [1] deals with T1, recombinant human plasminogen activator inhibitor-1 (PAI-1) (Homo sapiens, UniProt P05121).
T1 construct: purchased Molecular Innovations, Royal Oak, Mich
T1 sequence (P05121 24-402): as above
The data set is described as follows: Primary Screen for the PAI-1 Inhibition. The data set is classed as biochemical. The settings on record: for inhibition at 25 µM: 25 μM test compound, read-out: % Inhib. 25 μM; for inhibition at 100 µM: 100 μM test compound, read-out: % Inhib. 100 μM. The method, then: Test compounds are dissolved in DMSO at a final concentration of 10 mM, then diluted 100× in physiologic buffer. The inhibitory assay is initiated by the addition of the test compound (1-100 μM final concentration, maximum DMSO concentration of 0.2%) in a pH 6.6 buffer containing 140 nM recombinant human plasminogen activator inhibitor-1 (PAI-1; Molecular Innovations, Royal Oak, Mich.). Following a 1 hour incubation at room temperature, 70 nM of recombinant human tissue plasminogen activator (tPA) is added, and the combination of the test compound, PAI-1 and tPA is incubated for an additional 30 minutes. Following the second incubation, Spectrozyme-tPA (American Diagnostica, Greenwich, Conn.), a chromogenic substrate for tPA, is added and absorbance read at 405 nm at 0 and 60 minutes. Relative PAI-1 inhibition is equal to the residual tPA activity in the presence of the test compound and PAI-1. Control treatments include the complete inhibition of tPA by PAI-1 at the molar ratio employed (2:1), and the absence of any effect of the test compound on tPA alone.

As usually defined, the IC50 is the concentration that gives 50% inhibition. Read a low IC50 as greater potency. With `O=C(O)COc1ccc2cc(CNC(=O)c3cnn(-c4ccc(Cl)cc4)c3C(F)(F)F)ccc2c1` [Example 14, [6-({[1-(4-Chloro-phenyl)-5-trifluoromethyl-1H-pyrazole-4-carbonyl]-amino}-methyl)-naphthalen-2-yloxy]-acetic acid], it took 51 µM to reach half-maximal inhibition against human PAI-1 (IC50). Also, in data set [1], the inhibition at 25 µM came out at 1% and the inhibition at 100 µM amounted to 70%.
The corresponding values for `CCCCc1oc2ccccc2c1C(=O)NCc1ccc2c(Br)c(OC(Cc3ccccc3)C(=O)O)ccc2c1` (stereo not drawn) [Example 18, 2-(1-Bromo-6-{[(2-butyl-benzofuran-3-carbonyl)-amino]-methyl}-naphthalen-2-yloxy)-3-phenyl-propionic acid] are 15.7 µM, 53% and 92%.
Broadly, the melting point is the temperature, or range, at which the solid turns liquid. `Cc1oc2ccccc2c1C(=O)NCc1ccc2c(Br)c(OCc3nnn[nH]3)ccc2c1` [Example 20, 2-Methyl-benzofuran-3-carboxylic acid [5-bromo-6-(1H-tetrazol-5-ylmethoxy)-naphthalen-2-ylmethyl]-amide] came in with a melting point of 242 to 244 °C. In addition, the concentration for half-maximal inhibition (IC50) against human PAI-1 came to 15.8 µM. Also, in data set [1], the inhibition at 25 µM was determined as 26% and the inhibition at 100 µM turned out to be 58%.
The corresponding values for `CCc1oc2ccccc2c1C(=O)NCc1ccc2c(Br)c(OCc3nnn[nH]3)ccc2c1` [Example 21, 2-Ethyl-benzofuran-3-carboxylic acid [5-bromo-6-(1H-tetrazol-5-yl methoxy)-naphthalen-2-ylmethyl]-amide] are 235 to 238 °C, 5.08 µM, 36% and 54%.
The corresponding values for `CCCCc1oc2ccccc2c1C(=O)NCc1ccc2c(-c3ccc(OC)cc3)c(OC(Cc3ccccc3)C(=O)[O-])ccc2c1.[Na+]` (stereo not drawn) [Example 30, Sodium; 2-[6-{[(2-Butyl-benzofuran-3-carbonyl)-amino]-methyl}-1-(4-methoxy-phenyl)-naphthalen-2-yloxy]-3-phenyl-propionate] are 138 to 142 °C, 44.9 µM, 38% and 91%.
For the compound `CCc1oc2ccccc2c1C(=O)N(C)Cc1ccc2c(Br)c(OCc3nnn[nH]3)ccc2c1` [Example 32, 2-Ethyl-benzofuran-3-carboxylic acid [5-bromo-6-(1H-tetrazol-5-ylmethoxy)-naphthalen-2-ylmethyl]-methyl-amide], the IC50 against human PAI-1 was determined as 25.9 µM. In data set [1], the inhibition at 25 µM came to 1% and the inhibition at 100 µM was 70%.
`CCCc1c(C(=O)N(C)Cc2ccc3c(Br)c(OCc4nnn[nH]4)ccc3c2)cnn1-c1ccccc1` [Example 33, 1-Phenyl-5-propyl-1H-pyrazole-4-carboxylic acid [5-bromo-6-(1H-tetrazol-5-ylmethoxy)-naphthalen-2-ylmethyl]-methyl-amide] had a melting point of 75 to 85 °C. Further, the IC50 against human PAI-1 stood at 31.1 µM. For the same compound, in data set [1], the inhibition at 25 µM came out at 59% and the inhibition at 100 µM worked out at 94%.
The corresponding values for `CN(Cc1ccc2c(Br)c(OCc3nnn[nH]3)ccc2c1)C(=O)c1cn(Cc2ccccc2)c2ccccc12` [Example 34, 1-Benzyl-1H-indole-3-carboxylic acid [5-bromo-6-(1H-tetrazol-5-ylmethoxy)-naphthalen-2-ylmethyl]-methyl-amide] are 197 to 198 °C, 19.3 µM, 34% and 81%.
`CN(Cc1ccc2c(Br)c(OCc3nnn[nH]3)ccc2c1)C(=O)c1cn(C)c2ccccc12` [Example 37, 1-Methyl-1H-indole-3-carboxylic acid [5-bromo-6-(1H-tetrazol-5-ylmethoxy)-naphthalen-2-ylmethyl]-methyl-amide]: the melting point fell in the range of 227 to 228 °C. For the same compound, the half-maximal inhibitory concentration (IC50) against human PAI-1 worked out at 20.6 µM. Further, in data set [1], the inhibition at 25 µM stood at 52% and the inhibition at 100 µM worked out at 96%.
As for `Cc1oc2ccccc2c1C(=O)N(Cc1ccccc1)Cc1ccc2c(Br)c(OCc3nnn[nH]3)ccc2c1` [Example 49, 2-Methyl-benzofuran-3-carboxylic acid benzyl-[5-bromo-6-(1H-tetrazol-5-ylmethoxy)-naphthalen-2-ylmethyl]-amide], half-maximal inhibition on human PAI-1 (IC50) was put at 6.92 µM. Besides, in data set [1], the inhibition at 25 µM was determined as 54% and the inhibition at 100 µM worked out at 72%.
The corresponding values for `CCc1oc2ccccc2c1C(=O)N(Cc1ccccc1)Cc1ccc2c(Br)c(OCc3nnn[nH]3)ccc2c1` [Example 50, 2-Ethyl-benzofuran-3-carboxylic acid benzyl-[5-bromo-6-(1H-tetrazol-5ylmethoxy)-naphthalen-2-ylmethyl)-amide] are 35.7 µM, 56% and 61%.
Take `CN(Cc1ccc2c(Br)c(OC(Cc3ccccc3)C(=O)O)ccc2c1)C(=O)c1ccc(Oc2cc(Cl)cc(Cl)c2)o1` (stereo not drawn) [Example 64, 2-[1-Bromo-6-({[5-(3,5-dichloro-phenoxy)-furan-2-carbonyl]-methyl-amino}-methyl)-naphthalen-2-yloxy]-3-phenyl-propionic acid]: the IC50 against human PAI-1 was determined as 13.6 µM. In data set [1], the inhibition at 25 µM was found to be 40% and the inhibition at 100 µM came to 60%.
The corresponding values for `CN(Cc1ccc2c(Br)c(OC(Cc3ccccc3)C(=O)O)ccc2c1)C(=O)c1cc(C(C)(C)C)cc(C(C)(C)C)c1` (stereo not drawn) [Example 65, 2-(1-Bromo-6-{[(3,5-di-tert-butyl-benzoyl)-methyl-amino]-methyl}-naphthalen-2-yloxy)-3-phenyl-propionic acid] are 14.6 µM, 46% and 88%.
The corresponding values for `O=C(O)C(Cc1ccccc1)Oc1ccc2cc(CN(Cc3ccccc3)C(=O)c3ccc(Oc4cc(Cl)cc(Cl)c4)o3)ccc2c1Br` (stereo not drawn) [Example 67, 2-[6-({Benzyl-[5-(3,5-dichloro-phenoxy)-furan-2-carbonyl]-amino}-methyl)-1-bromo-naphthalen-2-yloxy]-3-phenyl-propionic acid] are 13.5 µM, 59% and 66%.
For the compound `CCCCc1oc2ccccc2c1C(=O)N(Cc1ccccc1)Cc1ccc2c(Br)c(OC(Cc3ccccc3)C(=O)O)ccc2c1` (stereo not drawn) [Example 68, 2-(6-{[Benzyl-(2-butyl-benzofuran-3-carbonyl)-amino]-methyl}-1-bromo-naphthalen-2-yloxy)-3-phenyl-propionic acid], half-maximal inhibition on human PAI-1 (IC50) required 20 µM. Also, in data set [1], the inhibition at 25 µM turned out to be 54% and the inhibition at 100 µM stood at 84%.
The corresponding values for `CC(C)(C)c1cc(C(=O)N(Cc2ccccc2)Cc2ccc3c(Br)c(OC(Cc4ccccc4)C(=O)O)ccc3c2)cc(C(C)(C)C)c1` (stereo not drawn) [Example 69, 2-(6-{[Benzyl-(3,5-di-tert-butyl-benzoyl)-amino]-methyl}-1-bromo-naphthalen-2-yloxy)-3-phenyl-propionic acid] are 16.8 µM, 55% and 92%.
